Key:
Assay type in all cases: in vivo
[1] = tested on: Kochia (Kochia scoparia); assay: Test A preemergence
Method in brief: (§1)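 Preemergence soil spray on seeded pots or post-emergence spray on 1–2 leaf plants, in loam–sand blend. Greenhouse ~10 d. Visual rating 0–100 against untreated plants.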

[2] = tested on: barnyardgrass (Echinochloa crus-galli); assay: Test A preemergence; conditions: Echinochloa crus-galli, pre-emergence, 240 h
Method in brief: as §1

[3] = tested on: giant foxtail (Setaria faberii); assay: Test A preemergence; conditions: Setaria faberi, pre-emergence, 240 h
Method in brief: as §1

[4] = tested on: pigweed (Amaranthus retroflexus); assay: Test A preemergence
[5] = tested on: ragweed (common ragweed, Ambrosia elatior); assay: Test A preemergence
Method in brief: as §1

[6] = tested on: ryegrass, Italian (Italian ryegrass, Lolium multiflorum); assay: Test A preemergence
Method in brief: as §1

[7] = tested on: Galium (catchweed bedstraw, Galium aparine); assay: Test A postemergence
Method in brief: as §1

[8] = tested on: Kochia (Kochia scoparia); assay: Test A postemergence
Method in brief: as §1

[9] = tested on: barnyardgrass (Echinochloa crus-galli); assay: Test A postemergence
Method in brief: as §1

[10] = tested on: blackgrass (Alopecurus myosuroides); assay: Test A postemergence
Method in brief: as §1

[11] = tested on: corn (Zea mays); assay: Test A postemergence
Method in brief: as §1

[12] = tested on: giant foxtail (Setaria faberii); assay: Test A postemergence
Method in brief: as §1

[13] = tested on: pigweed (Amaranthus retroflexus); assay: Test A postemergence
Method in brief: as §1

[14] = tested on: ragweed (common ragweed, Ambrosia elatior); assay: Test A postemergence
Method in brief: as §1

[15] = tested on: ryegrass, Italian (Italian ryegrass, Lolium multiflorum); assay: Test A postemergence
Method in brief: as §1

[16] = tested on: wheat (Triticum aestivum); assay: Test A postemergence
Method in brief: as §1

[17] = tested on: barnyardgrass (Echinochloa crus-galli); assay: Test B flooded paddy test; conditions: 250 g ai/ha, Flood; 0 to 100 scale where 0 is no effect and 100 is complete control
Method in brief: (§2)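 Compound goes directly into floodwater once pots are flooded 3 cm above soil, targeting plants at two leaves; the water depth is then held for the test duration. Plants sit 13–15 d in a greenhouse and are rated visually, 100 denoting complete control.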

[18] = tested on: ducksalad (Heteranthera limosa); assay: Test B flooded paddy test; conditions: 250 g ai/ha, Flood; 0 to 100 scale where 0 is no effect and 100 is complete control
Method in brief: as §2

[19] = tested on: rice (Oryra sativa); assay: Test B flooded paddy test; conditions: Oryza sativa, 250 g ai/ha, Flood; 0 to 100 scale where 0 is no effect and 100 is complete control; read-out: Rice plant response rating
Method in brief: as §2

[20] = tested on: sedge, umbrella (small-flower umbrella sedge, Cyperus difformis); assay: Test B flooded paddy test; conditions: Cyperus difformis, 250 g ai/ha, Flood; 0 to 100 scale where 0 is no effect and 100 is complete control; read-out: Sedge, Umbrella plant response rating
Method in brief: as §2

[21] = 500 g ai/ha, preemergence, visual injury rating about 10 d after treatment, 0 to 100 scale (0 no effect, 100 complete control)
[22] = 125 g ai/ha, Postemergence, visual injury after approximately 10 d, 0 to 100 scale where 0 is no effect and 100 is complete control
[23] = 500 g ai/ha, postemergence, visual injury, 0 to 100 scale (0 no effect, 100 complete control), approx. 10 d

Cc1ccc([C@H]2CN(C)C(=O)[C@@H]2C(=O)Nc2ccccc2[S+](C)[O-])cc1Cl (single isomer, unassigned) [Compound 1016]
Kochia plant response rating [1, 21]: 0 | pest or weed control at 125 g/ha ([1]; Bassia scoparia, pre-emergence, 240 h, 125 g ai/ha, Preemergence, visual injury rating after approximately 10 d, read-out: Kochia plant response rating (0 to 100 scale, 0 is no effect, 100 is complete control)): 0% | pest or weed control at 125 g/ha ([2]; 125 g ai/ha, Preemergence, visual injury rating after approximately 10 d, read-out: Barnyardgrass plant response rating (0 to 100 scale, 0 is no effect, 100 is complete control)): 90% | pest or weed control at 500 g/ha ([2]; 500 g ai/ha, preemergence, visual injury rating about 10 d after treatment, 0 to 100 scale (0 no effect, 100 complete control), read-out: Barnyardgrass plant response rating): 90% | pest or weed control at 125 g/ha ([3]; 125 g ai/ha, Preemergence, visual injury rating after approximately 10 d, read-out: Foxtail, Giant plant response rating (0 to 100 scale, 0 is no effect, 100 is complete control)): 90% | pest or weed control at 500 g/ha ([3]; 500 g ai/ha, preemergence, visual injury rating about 10 d after treatment, 0 to 100 scale (0 no effect, 100 complete control), read-out: Foxtail, Giant plant response rating): 90% | Pigweed plant response rating (0 to 100 scale, 0 is no effect, 100 is complete control) ([4]; 125 g ai/ha, Preemergence, visual injury rating after approximately 10 d): 0 | Pigweed plant response rating [4, 21]: 0 | Ragweed plant response rating [5, 21]: 0 | pest or weed control at 125 g/ha ([5]; Ambrosia artemisiifolia, pre-emergence, 240 h, 125 g ai/ha, Preemergence, visual injury rating after approximately 10 d, read-out: Ragweed plant response rating (0 to 100 scale, 0 is no effect, 100 is complete control)): 0% | Ryegrass, Italian plant response rating [6, 21]: 0 | pest or weed control at 125 g/ha ([6]; Lolium multiflorum, pre-emergence, 240 h, 125 g ai/ha, Preemergence, visual injury rating after approximately 10 d, read-out: Ryegrass, Italian plant response rating (0 to 100 scale, 0 is no effect, 100 is complete control)): 0% | Plant response rating, Galium [7, 22]: 0 | Plant response rating, Galium [7, 23]: 0 | Plant response rating, Kochia [8, 22]: 0 | Plant response rating, Kochia [8, 23]: 0 | Plant response rating, Barnyardgrass [9, 22]: 50 | pest or weed control at 500 g/ha ([9]; Echinochloa crus-galli, post-emergence, 240 h, 500 g ai/ha, postemergence, visual injury, 0 to 100 scale (0 no effect, 100 complete control), approx. 10 d, read-out: Plant response rating, Barnyardgrass): 90% | Plant response rating, Blackgrass [10, 23]: 0 | pest or weed control at 125 g/ha ([10]; Alopecurus myosuroides, post-emergence, 240 h, 125 g ai/ha, Postemergence, visual injury after approximately 10 d, 0 to 100 scale where 0 is no effect and 100 is complete control, read-out: Plant response rating, Blackgrass): 0% | Plant response rating, Corn [11, 22]: 0 | Plant response rating, Corn [11, 23]: 0 | Plant response rating, Foxtail, Giant [12, 22]: 30 | pest or weed control at 500 g/ha ([12]; Setaria faberi, post-emergence, 240 h, 500 g ai/ha, postemergence, visual injury, 0 to 100 scale (0 no effect, 100 complete control), approx. 10 d, read-out: Plant response rating, Foxtail, Giant): 80% | Plant response rating, Pigweed [13, 23]: 0 | pest or weed control at 125 g/ha ([13]; Amaranthus retroflexus, post-emergence, 240 h, 125 g ai/ha, Postemergence, visual injury after approximately 10 d, 0 to 100 scale where 0 is no effect and 100 is complete control, read-out: Plant response rating, Pigweed): 0% | Plant response rating, Ragweed [14, 23]: 0 | pest or weed control at 125 g/ha ([14]; Ambrosia artemisiifolia, post-emergence, 240 h, 125 g ai/ha, Postemergence, visual injury after approximately 10 d, 0 to 100 scale where 0 is no effect and 100 is complete control, read-out: Plant response rating, Ragweed): 0% | Plant response rating, Ryegrass, Italian [15, 22]: 0 | Plant response rating, Ryegrass, Italian [15, 23]: 0 | Plant response rating, Wheat [16, 22]: 0 | Plant response rating, Wheat [16, 23]: 0 | Barnyardgrass plant response rating [17]: 0 | Ducksalad plant response rating [18]: 0 | pest or weed control at 250 g/ha [19]: 30% | pest or weed control at 250 g/ha [20]: 0%
